# Source: US20160129044A1, “USE OF MESOTHELIAL CELLS IN TISSUE BIOENGINEERING AND ARTIFICIAL TISSUES” (FUNDACION PÚBLICA ANDALUZA PROGRESO Y SALUD, priority 2013, published 2016)
# Test system: adipose tissue mesothelial cells (ATMCs)
# Assay: Epithelial-to-mesenchymal transition (EMT) of cultured adipose tissue mesothelial cells: morphology, α-SMA/F-actin immunofluorescence, Western blot
# Format: cell-based, mouse
# Conditions: hydrocortisone 1 μg/ml; ATMCs cultured 3 days; basal media or 20 ng/ml EGF
# Method: A total number of 3.5×10^5 ATMCs was seeded in each well of a 6 wells culture dishes (140685, Nunclon™ Δ Surface) into 1.5 ml of a culture media that we termed MRPM (Mesothelial Retaining Phenotype Media). […] Dev Dyn 236: 2973-2979) which are components of the fetal bovine serum (FBS). […] Concentration in viable ATMCs was assessed with a Neubaeur haemocytometer by using the trypan blue exclusion test and was adjusted to a final concentration of 1.6×10^6 cells/ml. […] The mesothelial phenotype of ATMCs cultured for 48 hours in MRPM into hydrophilic p-Dish as well as mesothelialized HALC cultures was analyzed with immunofluorescence. […] Fluorescence images were captured with an inverted fluorescence microscope Olympus IX71 as described above. Quantification of α-SMA immunofluorescence expression was performed with the use of the Meta Imaging Software MetaMorph Offline version 7.5.1.0 (MDS Analytical technologies, USA). For each immunofluorescence image, were calculated the average values of specific Hoechst 33342 and Alexa 488 nm fluorescence emitted by the cells. Specific fluorescence was obtained after eliminating the average values of background fluorescence emitted by 3 areas lacking cells. Hoechst 33342 and Alexa 488 nm fluorescence were further divided between each other to obtain a relative index of marker expression (arbitrary units). […]
structure (smiles),measurement,value
"C[C@]12CCC(=O)C=C1CC[C@@H]1[C@@H]2[C@@H](O)C[C@@]2(C)[C@H]1CC[C@]2(O)C(=O)CO [Hydrocortisone, hydrocortisone]","Effect on Serum- and EGF-induced EMT of ATMCs (α-SMA expression, immunofluorescence and Western blot)",inhibits Serum- and EGF-induced EMT
